We go through five compounds from patent US7902375B2, “5-phenyl-4-methyl-thiazol-2-yl-amine derivatives as inhibitors of phosphatidylin ositol 3 kinase enzymes (PI13) for treatment of inflammatory diseases” (Novartis AG, priority 2003, dated 2011).

In the assay the target is T1, human PI3Kγ (recombinant GST-p110γ) (Homo sapiens, UniProt P48736).
T1 construct: Residues 38-1102 of human PI3Kγ are subcloned into the BamH1 and EcoR1 sites of the transfer vector pAcG2T; made in house; host or cells: Sf9 (Spodoptera frugiperda) insect cells, baculovirus
T1 sequence (P48736 38-1102): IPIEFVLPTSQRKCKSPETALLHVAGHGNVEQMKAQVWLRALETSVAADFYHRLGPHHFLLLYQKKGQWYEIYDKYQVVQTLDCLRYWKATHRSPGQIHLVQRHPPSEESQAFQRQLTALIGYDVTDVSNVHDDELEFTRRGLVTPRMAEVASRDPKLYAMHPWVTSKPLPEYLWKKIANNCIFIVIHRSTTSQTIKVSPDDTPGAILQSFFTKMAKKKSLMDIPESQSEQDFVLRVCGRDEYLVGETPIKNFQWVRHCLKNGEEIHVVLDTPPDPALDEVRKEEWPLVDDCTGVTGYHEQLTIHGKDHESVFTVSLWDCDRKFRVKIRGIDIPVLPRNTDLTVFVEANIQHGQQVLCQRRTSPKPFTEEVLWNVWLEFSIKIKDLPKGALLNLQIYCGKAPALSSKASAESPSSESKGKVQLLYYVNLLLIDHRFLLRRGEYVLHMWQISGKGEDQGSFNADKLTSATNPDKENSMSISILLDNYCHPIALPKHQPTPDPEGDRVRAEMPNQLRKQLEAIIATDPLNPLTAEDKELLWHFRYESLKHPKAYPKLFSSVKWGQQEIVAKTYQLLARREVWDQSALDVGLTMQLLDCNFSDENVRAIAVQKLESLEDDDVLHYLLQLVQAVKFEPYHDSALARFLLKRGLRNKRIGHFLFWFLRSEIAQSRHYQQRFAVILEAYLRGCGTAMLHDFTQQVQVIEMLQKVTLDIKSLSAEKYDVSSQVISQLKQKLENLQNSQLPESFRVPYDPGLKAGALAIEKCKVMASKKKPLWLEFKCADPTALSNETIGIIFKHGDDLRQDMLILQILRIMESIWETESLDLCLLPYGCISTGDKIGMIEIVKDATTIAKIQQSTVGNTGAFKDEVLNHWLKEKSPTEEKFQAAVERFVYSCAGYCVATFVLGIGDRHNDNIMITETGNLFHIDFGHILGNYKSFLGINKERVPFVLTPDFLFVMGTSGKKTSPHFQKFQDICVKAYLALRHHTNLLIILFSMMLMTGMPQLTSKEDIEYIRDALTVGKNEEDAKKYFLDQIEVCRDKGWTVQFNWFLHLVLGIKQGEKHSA
Description: in vitro kinase assay (Scintillation Proximity Assay), PI3K gamma isoform. It is filed as biochemical. The settings on record: SPA, phosphatidylinositol substrate, 60 minutes room temperature. The procedure:
To express the recombinant protein, Sf9 (Spodoptera frugiperda 9) insect cells are routinely maintained at densities between 3×10^5 and 3×10^6 cells/ml in serum containing TNMFH medium (Sigma). Sf9 cells, at a density of 2×10^6 are infected with human GST-PI3KγΔ34 baculovirus at a multiplicity of infection (m.o.i.) of 1 for 72 hours. The infected cells are harvested by centrifugation at 1400 g for 4 minutes at 4° C. and the cell pellets are frozen at −80° C. […] Cell lysate (supernatant) is added (usually as 50 ml lysate to 1 ml GST resin in 50 ml tubes) and gently rotated on a mixer at 4° C. for 2-3 hours. The unbound flow through sample is collected by centrifugation at 1000 g for 5 minutes at 4° C. using a DENLEY™ centrifuge. The 1 ml GST resin containing bound material is transferred to a 15 ml FALCON™ centrifuge tube for subsequent washing and elution steps. Firstly a series of 3 cycles of washings (mixing by gentle inversion) is performed with 15 ml ice cold wash Buffer A (50 mM Tris-HCl pH 7.5, 1% Triton X-100, 2 mM DTT) interspersed with centrifugation at 1000 g for 5 minutes at 4° C. A final single wash step is performed with 15 ml ice cold wash Buffer B (50 mM Tris-HCl pH 7.5, 2 mM DTT) and then centrifuged at 1000 g for 5 minutes at 4° C. The washed GST resin is finally eluted with 4 cycles of 1 ml ice cold elution buffer (50 mM Tris-HCl pH 7.5, 10 mM reduced glutathione, 2 mM DTT, 150 mM NaCl, 1 mM NaF, 50% ethylene glycol and protease inhibitors) interspersed with centrifugation at 1000 g for 5 minutes at 4° C. Samples are aliquoted and stored at −20° C.
An in vitro kinase assay was established that measures the transfer of the terminal phosphate of adenosine triphosphate to phosphatidylinositol. The kinase reaction is performed in a white 96 well microtitre plate as a Scintillation Proximiy Assay. […] The reaction is started by the addition of 20 μl of enzyme mix (40 mM Tris, 200 mM NaCl, 2 mM EGTA containing recombinant GST-p110γ).

For `Cc1nc(NC(=O)NCc2nnn[nH]2)sc1-c1ccc(S(C)(=O)=O)c(F)c1` [Example 124, 1-[5-(3-Fluoro-4-methanesulfonyl-phenyl)-4-methyl-thiazol-2-yl]-3-(1H-tetrazol-5-ylmethyl)-urea], the IC50 came to 7 nM.

As to `CCn1nnc(CNC(=O)Nc2nc(C)c(-c3ccc(S(C)(=O)=O)c(F)c3)s2)n1` [Example 131, 1-(2-Ethyl-2H-tetrazol-5-ylmethyl)-3-[5-(3-fluoro-4-methanesulfonyl-phenyl)-4-methyl-thiazol-2-yl]-urea], the IC50 was found to be 17 nM.

Consider `Cc1nc(NC(=O)NCC(=O)N(C)C(C)C)sc1-c1ccc(S(C)(=O)=O)c(F)c1` [Example 138, 2-{3-[5-(3-Fluoro-4-methanesulfonyl-phenyl)-4-methyl-thiazol-2-yl]-ureido)-N-isopropyl-N-methyl-acetamide], for which the IC50 came out at 18 nM. For `CCC(C)(C)NC(=O)CCNC(=O)Nc1nc(C)c(-c2ccc(S(C)(=O)=O)c(F)c2)s1` [Example 145, N-(1,1-Dimethyl-propyl)-3-{3-[5-(3-fluoro-4-methanesulfonyl-phenyl)-4-methyl-thiazol-2-yl]-ureido}-propionamide], the IC50 stood at 17 nM.

`Cc1nc(NC(=O)NCCc2nnn(C(C)C)n2)sc1-c1ccc(S(C)(=O)=O)c(F)c1` [Example 150, 1-[5-(3-Fluoro-4-methanesulfonyl-phenyl)-4-methyl-thiazol-2-yl]-3-[2-(2-isopropyl-2H-tetrazol-5-yl)-ethyl]-urea]: the IC50 was found to be 56 nM.

The term IC50 denotes the concentration at which inhibition is half-maximal.
